Measured values published in patent US12285407B2, “Bis-indolylmethane derivatives and uses thereof” (The University of The West Indies, priority 2018, dated 2025).
Like-named read-outs stand apart in the source and are kept apart here.

How the values were obtained:
[1] = tested on: clinical strains of MRSA; experiment: Kirby Bauer disc diffusion susceptibility profile; type: cell-based, Staphylococcus aureus; conditions: for Zone of clearance: 35° C., 24 hours, average n=3; for Interpretive standard (resistant/susceptible): zones vs EUCAST breakpoints (Table 30)
[2] = tested on: Enterococcus faecium; experiment: Checkerboard synergy (FICI) of antibiotics with SP-BIM; type: cell-based; conditions: Enterococcus faecium, Enterococcus faecium; for MIC: 24 h, antibiotic alone, read-out: MIC antibiotic only
[3] = tested on: MRSA; experiment: Adjuvant broth microdilution (antibiotic MIC with SP-BIM at 50 μg/mL); type: cell-based, Staphylococcus aureus; conditions: antibiotic alone
[4] = tested on: Bacillus cereus; experiment: Checkerboard synergy (FICI) of antibiotics with SP-BIM; type: cell-based; conditions: for MIC: 24 h, antibiotic alone, read-out: MIC antibiotic only
[5] = tested on: Escherichia coli; experiment: as above; set-up: MIC SP-BIM 13 only / MIC in combination: Antibiotic: unit not given beside the values; conditions: for MIC: 24 h
[6] = tested on: Streptococcus pneumoniae; experiment: as above; type: cell-based; conditions: for MIC: 24 h, antibiotic alone, read-out: MIC antibiotic only
[7] = tested on: Escherichia coli O157:H7; type: cell-based; conditions: antibiotic alone, no SP-BIM
[8] = tested on: Klebsiella pneumoniae; experiment: Checkerboard synergy (FICI) of antibiotics with SP-BIM; type: cell-based; conditions: for MIC: 24 h, antibiotic alone, read-out: MIC antibiotic only
[9] = tested on: Klebsiella pneumoniae; experiment: Adjuvant broth microdilution (antibiotic MIC with SP-BIM at 50 μg/mL); type: cell-based; conditions: antibiotic alone
[10] = tested on: Staphylococcus aureus; experiment: Checkerboard synergy (FICI) of antibiotics with SP-BIM; type: cell-based; conditions: Staphylococcus aureus, Staphylococcus aureus; for MIC: 24 h, antibiotic alone, read-out: MIC antibiotic only
[11] = tested on: Candida albicans; experiment: as above; set-up: MIC SP-BIM 13 only / MIC in combination: Antibiotic / MIC antibiotic only: unit not given beside the values
[12] = tested on: Bacillus cereus; experiment: Adjuvant broth microdilution (antibiotic MIC with SP-BIM at 50 μg/mL); type: cell-based; conditions: antibiotic alone, Table 9
[13] = tested on: Escherichia coli; experiment: microbe, parasite or virus in culture; type: cell-based; conditions: antibiotic alone, Table 6, read-out: MIC of antibiotic, No compound
[14] = tested on: Streptococcus pneumoniae; experiment: Adjuvant broth microdilution (antibiotic MIC with SP-BIM at 50 μg/mL); type: cell-based; conditions: Streptococcus pneumoniae; Streptococcus pneumonia; antibiotic alone; Table 5; read-out: MIC of antibiotic, No compound
[15] = SP-BIM 13 in combination with the labelled antibiotic
[16] = antibiotic in combination with SP-BIM 13
[17] = SP-BIM 9 in combination with the labelled antibiotic
[18] = antibiotic in combination with SP-BIM 9
[19] = MIC of the antibiotic in combination with SP-BIM 13
[20] = Streptococcus pneumonia (title: Streptococcus pyogenes), antibiotic + SP-BIM 9
[21] = Streptococcus pneumoniae, antibiotic + SP-BIM 13

Compound: C[C@H]1c2cccc(O)c2C(=O)C2=C(O)[C@]3(O)C(=O)C(C(N)=O)=C(O)[C@@H](N(C)C)[C@@H]3[C@@H](O)[C@@H]21 [Doxycycline, doxycycline]
- Zone of clearance ([1]; MRSA strain 1594): 12.5 mm
- Interpretive standard (resistant/susceptible) ([1]; MRSA strain 1594): R
- Zone of clearance ([1]; MRSA strain 1621): 21.0 mm
- Interpretive standard (resistant/susceptible) ([1]; MRSA strain 1621): S
- Zone of clearance ([1]; MRSA strain 5455): 22.5 mm
- Interpretive standard (resistant/susceptible) ([1]; MRSA strain 5455): S
- Zone of clearance ([1]; MRSA strain 5872): 15.0 mm
- Interpretive standard (resistant/susceptible) ([1]; MRSA strain 5872): R
- Zone of clearance ([1]; MRSA strain 7153): 18.0 mm
- Interpretive standard (resistant/susceptible) ([1]; MRSA strain 7153): R
- Zone of clearance ([1]; MRSA strain 7172): 19.0 mm
- Interpretive standard (resistant/susceptible) ([1]; MRSA strain 7172): R
- Zone of clearance ([1]; MRSA strain 7698): 10.5 mm
- Interpretive standard (resistant/susceptible) ([1]; MRSA strain 7698): R
- Zone of clearance ([1]; MRSA strain 10132): 12.0 mm
- Interpretive standard (resistant/susceptible) ([1]; MRSA strain 10132): R
- MIC ([2]; SP-BIM 9 checkerboard): 8 µg/mL
- MIC ([2]; SP-BIM 13 checkerboard): 8 µg/mL
- FIC of SP-BIM 13 [2, 15]: 0.5
- Interpretation ([2]; antibiotic + SP-BIM 13): Additive (Additive: FICI>0.5-1.0)
- Σ FIC ([2]; antibiotic + SP-BIM 13): 0.6
- MIC in combination, Antibiotic [2, 16]: 1 µg/mL
- FIC of antibiotic ([2]; in combination with SP-BIM 13): 0.1
- MIC ([3]; Staphylococcus aureus, Table 4, read-out: MIC of antibiotic, No compound): 8 µg/mL
- MIC of antibiotic, No Compound ([3]; Table 8 (series SP-BIMs 21-29)): <0.5 µg/mL
- MIC ([4]; SP-BIM 9 checkerboard): 4 µg/mL
- MIC ([4]; SP-BIM 13 checkerboard): 4 µg/mL
- MIC in combination, SP-BIM 9 ([4]; SP-BIM 9 concentration in combination with the labelled antibiotic): 125 µg/mL
- FIC of SP-BIM 9 [4, 17]: 0.5
- FIC of SP-BIM 13 [4, 15]: 0.3
- Interpretation ([4]; antibiotic + SP-BIM 9): Synergy (Synergy: FICI≤0.5)
- Σ FIC ([4]; antibiotic + SP-BIM 9): <0.6
- Interpretation ([4]; antibiotic + SP-BIM 13): Synergy (Synergy: FICI≤0.5)
- Σ FIC ([4]; antibiotic + SP-BIM 13): 0.5
- MIC in combination, Antibiotic [4, 18]: 0.5 µg/mL
- MIC in combination, Antibiotic [4, 16]: 1 µg/mL
- FIC of antibiotic ([4]; in combination with SP-BIM 9): 0.125
- FIC of antibiotic ([4]; in combination with SP-BIM 13): 0.25
- MIC ([5]; read-out: MIC antibiotic only, Escherichia coli, antibiotic alone): 16 µg/mL
- MIC ([5]; read-out: MIC antibiotic only, Escherichia coli, antibiotic alone, SP-BIM 9 checkerboard): 16 µg/mL
- MIC in combination: Antibiotic [5, 19]: 2
- FIC of SP-BIM 9 [5, 17]: 0.5
- FIC of SP-BIM 13 [5, 15]: 0.3
- Interpretation ([5]; antibiotic + SP-BIM 9): Synergy (Synergy: FICI≤0.5)
- Σ FIC ([5]; antibiotic + SP-BIM 9): <1.0
- Interpretation ([5]; antibiotic + SP-BIM 13): Synergy (Synergy: FICI≤0.5)
- Σ FIC ([5]; antibiotic + SP-BIM 13): <0.4
- MIC in combination, Antibiotic [5, 18]: 8 µg/mL
- FIC of antibiotic ([5]; combination with SP-BIM 13): 0.1
- FIC of antibiotic ([5]; in combination with SP-BIM 9): 0.5
- FIC of SP-BIM 9 ([6]; Streptococcus pneumonia (title: Streptococcus pyogenes), SP-BIM 9 in combination with the labelled antibiotic): 0.50
- Interpretation [6, 20]: Additive (Additive: FICI>0.5-1.0)
- Σ FIC [6, 20]: <0.75
- MIC in combination, Antibiotic ([6]; Streptococcus pneumonia (title: Streptococcus pyogenes), antibiotic in combination with SP-BIM 9): 4 µg/mL
- FIC of antibiotic ([6]; Streptococcus pneumonia (title: Streptococcus pyogenes), in combination with SP-BIM 9): 0.25
- MIC ([6]; Streptococcus pneumoniae, Streptococcus pneumonia (title: Streptococcus pyogenes), SP-BIM 9 checkerboard): 16 µg/mL
- MIC ([6]; Streptococcus pneumoniae, Streptococcus pneumoniae, SP-BIM 13 checkerboard): 16 µg/mL
- FIC of SP-BIM 13 ([6]; Streptococcus pneumoniae, SP-BIM 13 in combination with the labelled antibiotic): 0.3
- Interpretation [6, 21]: Synergy (Synergy: FICI≤0.5)
- Σ FIC [6, 21]: <0.3
- MIC in combination, Antibiotic ([6]; Streptococcus pneumoniae, antibiotic in combination with SP-BIM 13): 1 µg/mL
- FIC of antibiotic ([6]; Streptococcus pneumoniae, in combination with SP-BIM 13): 0.1
- MIC of antibiotic, No Compound [7]: 2 µg/mL
- MIC ([8]; SP-BIM 9 checkerboard): 16 µg/mL
- MIC ([8]; SP-BIM 13 checkerboard): 16 µg/mL
- FIC of SP-BIM 9 [8, 17]: 0.5
- FIC of SP-BIM 13 [8, 15]: 0.3
- Interpretation ([8]; antibiotic + SP-BIM 9): Additive (Additive: FICI>0.5-1.0)
- Σ FIC ([8]; antibiotic + SP-BIM 9): <0.8
- Interpretation ([8]; antibiotic + SP-BIM 13): Synergy (Synergy: FICI≤0.5)
- Σ FIC ([8]; antibiotic + SP-BIM 13): <0.4
- MIC in combination, Antibiotic [8, 18]: 4 µg/mL
- MIC in combination, Antibiotic [8, 16]: 2 µg/mL
- FIC of antibiotic ([8]; in combination with SP-BIM 9): 0.25
- FIC of antibiotic ([8]; in combination with SP-BIM 13): 0.1
- MIC of antibiotic, No Compound ([9]; Klebsiella pneumonia, no SP-BIM): 8 µg/mL
- MIC ([9]; Klebsiella pneumoniae, Table 7, read-out: MIC of antibiotic, No compound): 32 µg/mL
- MIC ([10]; SP-BIM 9 checkerboard): 8 µg/mL
- MIC ([10]; SP-BIM 13 checkerboard): 8 µg/mL
- FIC of SP-BIM 9 [10, 17]: 0.13
- FIC of SP-BIM 13 [10, 15]: 0.3
- Interpretation ([10]; antibiotic + SP-BIM 9): Synergy (Synergy: FICI≤0.5)
- Σ FIC ([10]; antibiotic + SP-BIM 9): <0.38
- Interpretation ([10]; antibiotic + SP-BIM 13): Synergy (Synergy: FICI≤0.5)
- Σ FIC ([10]; antibiotic + SP-BIM 13): 0.4
- MIC in combination, Antibiotic [10, 18]: 2.0 µg/mL
- MIC in combination, Antibiotic [10, 16]: 1 µg/mL
- FIC of antibiotic ([10]; in combination with SP-BIM 9): 0.25
- FIC of antibiotic ([10]; in combination with SP-BIM 13): 0.1
- MIC ([11]; 24 h, read-out: MIC antibiotic only): 16 µg/mL
- MIC in combination: Antibiotic [11, 19]: 2
- FIC of SP-BIM 13 [11, 15]: 0.5
- Interpretation ([11]; antibiotic + SP-BIM 13): Additive (Additive: FICI>0.5-1.0)
- Σ FIC ([11]; antibiotic + SP-BIM 13): <0.6
- FIC of antibiotic ([11]; combination with SP-BIM 13): 0.1
- MIC of antibiotic, No Compound [12]: <0.5 µg/mL
- MIC [13]: 63 µg/mL
- MIC [14]: 63 µg/mL
